Results reported in US12053442B2, “Methods and compositions for neuroprotection” (The Feinstein Institutes for Medical Research, priority 2020, dated 2024).

Experiments:
control and CA rats = test: Cocktail development trials to assess survival benefit (Table 9); format: in vivo, rat; settings: reason for removal from the cocktail
Procedure: Our goal was to provide the most benefit with the least number of agents in a single concoction. […] This information can aid in selecting agents that can be appropriately and practically combined. […] Each drug, individually and in various combinations, was administered to normal rats (n=3) to determine any potential adverse effects, such as immediate death.

[1] = Solubility in water during cocktail formulation; format: physicochemical; settings: formulation NWH-1
[2] = ESI-MS evaluation of active cocktail components (stability, molecular interaction); format: physicochemical; settings: ESI-MS after ethyl acetate extraction (FIG. 6)
Procedure: Then the molecular mass of the extracted components was analyzed by electrospray ionization mass spectrometry (ESI-MS) (FIG. 6). […] Then the preparation was centrifuged at 10 000 g for 2 min at room temperature. The top layer (ethyl acetate) was then separated and transferred to a new vial. Another […] ethyl acetate was added into the bottom layer, and the extraction was repeated. The combined organic phase was dried with nitrogen gas. The residue was reconstituted in 500 μL methanol, vortexed for 10 s, and centrifuged at 13 000 g for 2 min. The final extract was transferred into a polypropylene vial. Then 30 μL of the final extract was injected and analyzed on a LTQ XL™ Linear Ion Trap Mass Spectrometer (Thermo Fisher Scientific, Waltham, MA), and the data was analyzed using Xcalibur 3.1 (Thermo Fisher Scientific, Waltham, MA).

Structure (SMILES)	Stability of drug in the final cocktail formulation by mass spectra [2]	also measured
Nc1ncnc2c1ncn2[C@@H]1O[C@H](COP(=O)([O-])OP(=O)(O)OP(=O)(O)O)[C@@H](O)[C@H]1O.[Cl-].[Mg+2] [ATP-magnesium chloride, adenosine triphosphate-magnesium chloride]		Adverse effect seen in preliminary trials (control and CA rats): hypotensive effect
COC1=C(OC)C(=O)C(C/C=C(\C)CC/C=C(\C)CC/C=C(\C)CC/C=C(\C)CC/C=C(\C)CC/C=C(\C)CC/C=C(\C)CC/C=C(\C)CC/C=C(\C)CCC=C(C)C)=C(C)C1=O [CoQ10, Coenzyme Q10]		Solubility in water [1]: insoluble in
CC(=O)N[C@@H](CS)C(=O)O [N-acetyl cysteine]	intact and stable	
CC1=NN(c2ccccc2)C(=O)C1 [edaravone, Edaravone]	intact and stable	
CN(C)C(=N)N=C(N)N [metformin, Metformin]	intact and stable	
C/C(=C(\CCOC(=O)C(C)C)SS/C(CCOC(=O)C(C)C)=C(/C)N(C=O)Cc1cnc(C)nc1N)N(C=O)Cc1cnc(C)nc1N [sulbutiamine, Sulbutiamine]		Solubility in water [1]: insoluble in
O=C1O[C@H]([C@@H](O)CO)C(O)=C1O [vitamin C, ascorbic acid]	intact and stable	
N=C(N)NC(=O)c1cnn(-c2cccc3ncccc23)c1C1CC1 [zoniporide, Zoniporide]	intact and stable	
